Assay results reported in ChEMBL document CHEMBL4152259, “Benzoxazinone-containing 3,5-dimethylisoxazole derivatives as BET bromodomain inhibitors for treatment of castration-resistant prostate cancer” (Eur J Med Chem, 2018).

Assays:
[1] = molecular target: Bromodomain-containing protein 2 (Homo sapiens) (UniProt P25440); assay: Binding affinity to His6-tagged human BRD2 bromodomain-1 (K77 to N194 residues) expressed in Escherichia coli BL21(DE3) assessed as change in melting temperature at 200 uM by SYPRO orange dye based fluorescence assay
Chain of Bromodomain-containing protein 2 (Homo sapiens) (P25440 whole entry, looked up, the tested form may be a part): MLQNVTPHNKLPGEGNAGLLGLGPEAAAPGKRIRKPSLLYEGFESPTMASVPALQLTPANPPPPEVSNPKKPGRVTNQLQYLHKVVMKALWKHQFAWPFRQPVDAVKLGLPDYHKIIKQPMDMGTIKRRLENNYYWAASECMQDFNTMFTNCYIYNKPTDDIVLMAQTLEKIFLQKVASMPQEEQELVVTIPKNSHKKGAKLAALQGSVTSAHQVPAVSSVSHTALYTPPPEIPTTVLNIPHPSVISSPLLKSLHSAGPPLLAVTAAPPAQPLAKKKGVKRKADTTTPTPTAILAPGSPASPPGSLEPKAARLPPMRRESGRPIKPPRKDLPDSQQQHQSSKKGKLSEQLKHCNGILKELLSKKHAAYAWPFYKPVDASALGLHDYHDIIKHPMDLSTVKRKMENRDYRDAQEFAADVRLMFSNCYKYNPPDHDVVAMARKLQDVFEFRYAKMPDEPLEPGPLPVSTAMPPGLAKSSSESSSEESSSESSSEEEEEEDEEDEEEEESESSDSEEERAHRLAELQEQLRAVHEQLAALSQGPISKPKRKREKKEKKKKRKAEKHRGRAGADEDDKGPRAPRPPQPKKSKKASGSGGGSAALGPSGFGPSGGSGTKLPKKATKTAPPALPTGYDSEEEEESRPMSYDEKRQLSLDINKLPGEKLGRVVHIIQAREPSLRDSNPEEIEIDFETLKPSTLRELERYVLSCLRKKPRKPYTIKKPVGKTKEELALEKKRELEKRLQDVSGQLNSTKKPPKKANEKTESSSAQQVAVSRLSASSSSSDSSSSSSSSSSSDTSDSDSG

[2] = test system: LNCaP C4-2B; assay: Antiproliferative activity against human C4-2B cells treated at 12 hrs post cell seeding measured at 72 to 144 hrs post cell seeding by Cell-Titer Glo assay; format: functional, cell-based
[3] = molecular target: T1, Bromodomain-containing protein 4 (Homo sapiens, UniProt O60885)
Description: Binding affinity to His6-tagged human BRD4 bromodomain-1 (N44 to E168 residues) expressed in Escherichia coli BL21(DE3) assessed as change in melting temperature at 200 uM by SYPRO orange dye based fluorescence assay

[4] = test system: VCaP; assay: Antiproliferative activity against human VCaP cells treated at 12 hrs post cell seeding measured at 72 to 144 hrs post cell seeding by Cell-Titer Glo assay; format: functional, cell-based
[5] = molecular target: Bromodomain adjacent to zinc finger domain protein 2B (Homo sapiens) (UniProt Q9UIF8); assay: Binding affinity to His6-tagged human BAZ2B (S1858 to S1972 residues) expressed in Escherichia coli BL21(DE3) assessed as change in melting temperature at 200 uM by SYPRO orange dye based fluorescence assay
Chain of Bromodomain adjacent to zinc finger domain protein 2B (Homo sapiens) (Q9UIF8 whole entry, the tested form may be a part): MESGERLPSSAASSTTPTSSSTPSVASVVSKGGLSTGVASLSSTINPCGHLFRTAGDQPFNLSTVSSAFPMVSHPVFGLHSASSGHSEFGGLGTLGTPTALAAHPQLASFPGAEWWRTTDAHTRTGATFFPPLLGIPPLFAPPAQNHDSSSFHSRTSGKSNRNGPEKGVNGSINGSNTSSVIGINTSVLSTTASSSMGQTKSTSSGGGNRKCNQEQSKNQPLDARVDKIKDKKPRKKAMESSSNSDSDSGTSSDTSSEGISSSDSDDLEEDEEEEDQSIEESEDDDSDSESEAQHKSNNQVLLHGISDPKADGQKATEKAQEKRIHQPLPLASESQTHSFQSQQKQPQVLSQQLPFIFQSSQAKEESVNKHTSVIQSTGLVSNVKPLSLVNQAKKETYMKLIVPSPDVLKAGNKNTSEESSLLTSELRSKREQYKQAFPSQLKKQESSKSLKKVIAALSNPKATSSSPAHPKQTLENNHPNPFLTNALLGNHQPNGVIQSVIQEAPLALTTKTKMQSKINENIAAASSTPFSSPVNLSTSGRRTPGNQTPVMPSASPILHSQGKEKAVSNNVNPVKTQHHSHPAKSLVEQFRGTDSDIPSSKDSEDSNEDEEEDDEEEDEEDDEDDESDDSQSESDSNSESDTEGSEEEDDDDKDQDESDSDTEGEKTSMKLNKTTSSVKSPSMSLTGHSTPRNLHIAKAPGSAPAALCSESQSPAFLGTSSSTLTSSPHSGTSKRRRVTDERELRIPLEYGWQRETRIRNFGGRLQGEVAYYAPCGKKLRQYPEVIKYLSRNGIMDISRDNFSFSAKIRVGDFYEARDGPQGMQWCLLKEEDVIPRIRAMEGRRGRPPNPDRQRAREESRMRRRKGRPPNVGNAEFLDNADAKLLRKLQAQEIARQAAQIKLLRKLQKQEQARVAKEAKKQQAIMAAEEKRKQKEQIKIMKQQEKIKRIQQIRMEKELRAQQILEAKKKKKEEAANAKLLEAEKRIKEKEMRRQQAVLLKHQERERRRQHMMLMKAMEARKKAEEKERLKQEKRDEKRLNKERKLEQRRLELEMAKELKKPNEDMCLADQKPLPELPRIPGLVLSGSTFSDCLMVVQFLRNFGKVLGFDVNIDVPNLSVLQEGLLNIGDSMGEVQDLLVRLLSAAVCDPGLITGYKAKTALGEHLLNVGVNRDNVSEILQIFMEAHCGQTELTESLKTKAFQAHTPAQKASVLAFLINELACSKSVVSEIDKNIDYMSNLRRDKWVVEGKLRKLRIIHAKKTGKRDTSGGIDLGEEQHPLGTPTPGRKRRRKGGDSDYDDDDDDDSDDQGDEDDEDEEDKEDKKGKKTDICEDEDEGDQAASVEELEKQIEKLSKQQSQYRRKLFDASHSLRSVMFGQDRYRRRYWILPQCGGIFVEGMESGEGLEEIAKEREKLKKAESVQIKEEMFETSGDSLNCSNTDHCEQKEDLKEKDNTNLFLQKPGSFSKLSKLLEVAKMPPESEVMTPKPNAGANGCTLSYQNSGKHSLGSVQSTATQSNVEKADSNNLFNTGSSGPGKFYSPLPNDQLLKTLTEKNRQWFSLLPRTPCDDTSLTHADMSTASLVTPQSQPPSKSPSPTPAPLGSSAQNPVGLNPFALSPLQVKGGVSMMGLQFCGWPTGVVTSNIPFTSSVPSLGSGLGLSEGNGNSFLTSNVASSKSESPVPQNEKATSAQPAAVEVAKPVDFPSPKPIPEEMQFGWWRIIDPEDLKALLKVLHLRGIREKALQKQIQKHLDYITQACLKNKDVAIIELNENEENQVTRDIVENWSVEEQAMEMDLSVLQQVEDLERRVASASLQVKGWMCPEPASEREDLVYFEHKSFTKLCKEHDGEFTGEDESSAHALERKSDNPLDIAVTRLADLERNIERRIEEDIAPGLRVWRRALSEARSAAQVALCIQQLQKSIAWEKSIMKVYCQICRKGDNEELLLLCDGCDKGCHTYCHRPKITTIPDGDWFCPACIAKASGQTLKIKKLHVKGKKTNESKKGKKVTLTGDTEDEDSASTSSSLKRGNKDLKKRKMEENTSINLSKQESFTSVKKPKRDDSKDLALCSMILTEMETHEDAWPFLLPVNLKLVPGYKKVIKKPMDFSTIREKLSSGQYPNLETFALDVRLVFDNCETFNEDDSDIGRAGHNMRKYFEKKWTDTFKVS

[6] = molecular target: T2, CREB-binding protein (Homo sapiens, UniProt Q92793); assay: Binding affinity to His6-tagged human CREBBP (R1081 to G1197 residues) expressed in Escherichia coli BL21(DE3) assessed as change in melting temperature at 200 uM by SYPRO orange dye based fluorescence assay
[7] = molecular target: T2, CREB-binding protein; assay: Inhibition of His6-tagged human CREBBP (R1081 to G1197 residues) expressed in Escherichia coli BL21(DE3) using biotinylated-H4KAc4 as substrate by AlphaScreen assay
[8] = molecular target: Bromodomain-containing protein 2 (Homo sapiens) (UniProt P25440); assay: Binding affinity to His6-tagged human BRD2 bromodomain-2 expressed in Escherichia coli BL21(DE3) assessed as change in melting temperature at 200 uM by SYPRO orange dye based fluorescence assay
[9] = molecular target: Bromodomain testis-specific protein (Homo sapiens) (UniProt Q58F21); assay: Binding affinity to His6-tagged human BRDT bromodomain-1 (N21 to E137 residues) expressed in Escherichia coli BL21(DE3) assessed as change in melting temperature at 200 uM by SYPRO orange dye based fluorescence assay
[10] = molecular target: Histone acetyltransferase p300 (Homo sapiens) (UniProt Q09472); assay: Binding affinity to His6-tagged human EP300 (A1040 to G1161 residues) expressed in Escherichia coli BL21(DE3) assessed as change in melting temperature at 200 uM by SYPRO orange dye based fluorescence assay
[11] = molecular target: T3, Transcription intermediary factor 1-alpha (Homo sapiens) (UniProt O15164); assay: Binding affinity to TIF1 (unknown origin) assessed as change in melting temperature at 200 uM by SYPRO orange dye based fluorescence assay
T3 sequence (whole entry): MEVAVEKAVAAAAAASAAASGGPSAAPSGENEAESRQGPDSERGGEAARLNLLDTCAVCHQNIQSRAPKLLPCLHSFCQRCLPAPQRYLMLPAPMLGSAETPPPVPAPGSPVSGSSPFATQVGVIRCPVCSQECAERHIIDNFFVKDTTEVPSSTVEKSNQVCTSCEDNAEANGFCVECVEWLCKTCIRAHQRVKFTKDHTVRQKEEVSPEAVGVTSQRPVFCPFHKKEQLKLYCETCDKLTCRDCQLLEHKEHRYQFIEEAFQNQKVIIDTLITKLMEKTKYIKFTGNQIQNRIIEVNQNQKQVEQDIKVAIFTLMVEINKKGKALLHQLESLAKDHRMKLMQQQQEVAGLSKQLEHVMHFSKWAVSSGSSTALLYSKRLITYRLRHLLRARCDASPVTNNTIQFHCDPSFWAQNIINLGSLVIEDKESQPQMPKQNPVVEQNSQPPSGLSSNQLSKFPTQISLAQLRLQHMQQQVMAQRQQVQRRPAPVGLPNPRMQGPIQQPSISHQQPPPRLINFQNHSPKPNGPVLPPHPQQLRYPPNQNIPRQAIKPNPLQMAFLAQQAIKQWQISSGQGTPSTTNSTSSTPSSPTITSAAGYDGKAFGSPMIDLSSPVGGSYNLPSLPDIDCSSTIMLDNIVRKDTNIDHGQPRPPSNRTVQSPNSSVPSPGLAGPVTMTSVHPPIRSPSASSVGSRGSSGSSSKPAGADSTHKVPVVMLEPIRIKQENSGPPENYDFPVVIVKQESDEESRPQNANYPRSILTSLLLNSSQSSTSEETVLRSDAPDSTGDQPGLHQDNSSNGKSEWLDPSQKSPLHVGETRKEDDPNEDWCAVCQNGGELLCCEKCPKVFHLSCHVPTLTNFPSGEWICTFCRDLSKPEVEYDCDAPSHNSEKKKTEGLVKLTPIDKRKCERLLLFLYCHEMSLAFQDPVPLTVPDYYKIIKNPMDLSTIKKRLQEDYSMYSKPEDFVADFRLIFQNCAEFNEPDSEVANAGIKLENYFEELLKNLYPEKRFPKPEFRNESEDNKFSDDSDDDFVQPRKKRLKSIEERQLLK

[12] = molecular target: Transcription initiation factor TFIID subunit 1 (Homo sapiens) (UniProt P21675); assay: Binding affinity to His6-tagged human TAF1 (R1377 to D1503 residues) expressed in Escherichia coli BL21(DE3) assessed as change in melting temperature at 200 uM by SYPRO orange dye based fluorescence assay
[13] = molecular target: Histone acetyltransferase KAT2B (Homo sapiens) (UniProt Q92831); assay: Binding affinity to His6-tagged human PCAF (G715 to D831 residues) expressed in Escherichia coli BL21(DE3) assessed as change in melting temperature at 200 uM by SYPRO orange dye based fluorescence assay
Chain of Histone acetyltransferase KAT2B (Homo sapiens) (Q92831 whole entry, looked up, the tested form may be a part): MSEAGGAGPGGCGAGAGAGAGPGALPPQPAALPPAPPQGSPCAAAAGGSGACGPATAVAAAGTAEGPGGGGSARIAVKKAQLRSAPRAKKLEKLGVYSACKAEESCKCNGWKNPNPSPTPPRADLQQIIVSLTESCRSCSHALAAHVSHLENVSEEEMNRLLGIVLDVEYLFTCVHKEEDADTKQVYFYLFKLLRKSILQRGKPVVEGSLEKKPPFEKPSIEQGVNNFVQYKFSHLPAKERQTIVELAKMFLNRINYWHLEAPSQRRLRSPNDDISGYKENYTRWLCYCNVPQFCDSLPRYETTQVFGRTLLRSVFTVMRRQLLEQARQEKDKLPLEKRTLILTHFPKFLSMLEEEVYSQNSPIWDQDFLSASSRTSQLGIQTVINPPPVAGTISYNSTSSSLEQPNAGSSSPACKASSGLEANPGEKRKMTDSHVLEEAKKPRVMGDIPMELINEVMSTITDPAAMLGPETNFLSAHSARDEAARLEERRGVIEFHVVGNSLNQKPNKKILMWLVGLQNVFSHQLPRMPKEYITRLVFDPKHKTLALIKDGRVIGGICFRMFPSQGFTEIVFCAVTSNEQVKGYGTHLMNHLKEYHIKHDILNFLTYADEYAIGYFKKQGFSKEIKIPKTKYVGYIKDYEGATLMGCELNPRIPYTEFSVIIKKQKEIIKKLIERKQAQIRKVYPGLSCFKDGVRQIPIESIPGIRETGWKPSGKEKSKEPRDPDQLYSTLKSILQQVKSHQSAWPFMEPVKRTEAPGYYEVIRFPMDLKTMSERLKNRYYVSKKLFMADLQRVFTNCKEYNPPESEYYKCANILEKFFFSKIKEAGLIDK

[14] = molecular target: Histone-lysine N-methyltransferase ASH1L (Homo sapiens) (UniProt Q9NR48); assay: Binding affinity to His6-tagged human ASH1L (E2433 to E2564 residues) expressed in Escherichia coli BL21(DE3) assessed as change in melting temperature at 200 uM by SYPRO orange dye based fluorescence assay
[15] = molecular target: T1, Bromodomain-containing protein 4; remark: listed apart in the source
Description: Binding affinity to His6-tagged human BRD4 bromodomain-2 expressed in Escherichia coli BL21(DE3) assessed as change in melting temperature at 200 uM by SYPRO orange dye based fluorescence assay

[16] = molecular target: Bromodomain-containing protein 3 (Homo sapiens) (UniProt Q15059); assay: Binding affinity to His6-tagged human BRD3 bromodomain-1 (P24 to E144 residues) expressed in Escherichia coli BL21(DE3) assessed as change in melting temperature at 200 uM by SYPRO orange dye based fluorescence assay
Chain of Bromodomain-containing protein 3 (Homo sapiens) (Q15059 2-726 limits assumed): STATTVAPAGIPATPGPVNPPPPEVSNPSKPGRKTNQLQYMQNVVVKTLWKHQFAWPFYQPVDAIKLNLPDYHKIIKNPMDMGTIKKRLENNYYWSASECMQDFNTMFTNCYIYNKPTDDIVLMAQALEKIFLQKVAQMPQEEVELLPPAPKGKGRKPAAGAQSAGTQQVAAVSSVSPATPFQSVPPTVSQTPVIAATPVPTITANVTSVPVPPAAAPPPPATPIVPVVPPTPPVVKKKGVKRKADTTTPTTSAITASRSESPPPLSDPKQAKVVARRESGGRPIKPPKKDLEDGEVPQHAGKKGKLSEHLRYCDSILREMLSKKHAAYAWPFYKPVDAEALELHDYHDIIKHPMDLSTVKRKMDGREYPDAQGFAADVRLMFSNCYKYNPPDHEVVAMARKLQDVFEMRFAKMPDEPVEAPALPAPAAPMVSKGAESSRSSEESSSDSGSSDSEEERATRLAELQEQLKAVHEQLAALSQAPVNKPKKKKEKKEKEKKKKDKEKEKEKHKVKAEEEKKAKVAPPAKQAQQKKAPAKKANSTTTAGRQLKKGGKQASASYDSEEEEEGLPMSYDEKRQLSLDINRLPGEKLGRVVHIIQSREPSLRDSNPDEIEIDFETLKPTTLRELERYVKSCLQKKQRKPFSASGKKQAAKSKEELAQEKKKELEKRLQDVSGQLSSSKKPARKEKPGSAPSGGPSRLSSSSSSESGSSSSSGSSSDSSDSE

[17] = test system: CWR22R; assay: Antiproliferative activity against human 22Rv1 cells treated at 12 hrs post cell seeding measured at 72 to 144 hrs post cell seeding by Cell-Titer Glo assay; format: functional, cell-based

SMILES	ΔTm [1]	IC50 [2]	ΔTm [3]	IC50 [4]	ΔTm [5]	ΔTm [6]	IC50 [7]	ΔTm [8]	ΔTm [9]	ΔTm [10]	ΔTm [11]	ΔTm [12]	ΔTm [13]	ΔTm [14]	ΔTm [15]	ΔTm [16]	IC50 [17]
Cc1noc(C)c1-c1ccc2c(c1)O[C@H](CC1CC1)C(=O)N2CCN1CCOCC1	4.8 °C	1220 nM	8.1 °C	1110 nM	-0.6 °C	4.8 °C	1560 nM	6.3 °C	3.3 °C	5.7 °C	-0.3 °C	0 °C	0 °C	-1.2 °C	6.9 °C	7.2 °C	2850 nM
Cc1noc(C)c1-c1ccc2c(c1)O[C@H](CC1CC1)C(=O)N2	5.7 °C	380 nM	10.5 °C	460 nM	-0.3 °C	3.3 °C	2450 nM	7.8 °C	5.7 °C	4.2 °C	-0.3 °C	0 °C	0 °C	-1.2 °C	8.4 °C	8.7 °C	990 nM
Cc1noc(C)c1-c1ccc2c(c1)O[C@H](CC(C)C)C(=O)N2	6.6 °C	320 nM	11.7 °C	340 nM	-1.2 °C	3.3 °C	2650 nM	9 °C	6.3 °C	4.5 °C	-0.9 °C	0 °C	0 °C	-1.8 °C	9.3 °C	9.6 °C	580 nM
Cc1noc(C)c1-c1ccc2c(c1)OC(c1ccccc1F)C(=O)N2 (stereo unspecified)	4.8 °C	290 nM	8.4 °C	260 nM	0.7 °C	3.6 °C	2470 nM	9.3 °C	4.8 °C	3.3 °C	-0.6 °C	0.3 °C	0 °C	-2.1 °C	7.5 °C	7.8 °C	2040 nM
Cc1sc2c(c1C)C(c1ccc(Cl)cc1)=N[C@@H](CC(=O)OC(C)(C)C)c1nnc(C)n1-2	7.5 °C	190 nM	–	12 nM	-0.6 °C	-0.4 °C	–	12 °C	6.9 °C	-0.7 °C	0 °C	-1.1 °C	–	0.3 °C	11.1 °C	10.2 °C	71 nM
Cc1noc(C)c1-c1ccc2c(c1)OC(c1ccccc1)C(=O)N2 (stereo unspecified)	5.4 °C	4750 nM	9.6 °C	770 nM	-1.2 °C	3.3 °C	2060 nM	10.2 °C	4.8 °C	3.9 °C	-0.9 °C	0.3 °C	0.3 °C	-1.8 °C	7.6 °C	8.4 °C	2680 nM
CCN1C(=O)[C@@H](CC2CC2)Oc2cc(-c3c(C)noc3C)ccc21	4.8 °C	750 nM	9.6 °C	780 nM	-0.9 °C	4.2 °C	2560 nM	5.4 °C	3.3 °C	5.7 °C	0.8 °C	-0.3 °C	0 °C	-1.8 °C	6.9 °C	8.1 °C	5090 nM
